Among the data in BindingDB's records for doi:10.1016/0960-894X(96)00091-1 (1996) are IC50 values, retold here.

The assay concerns the target Endothelin-converting enzyme 1 (Sus scrofa). Briefly: Compound was evaluated for inhibition of Endothelin-converting enzyme 1 partially purified from porcine primary aortic endothelial cells.
In general, IC50 refers to the concentration that inhibits the measured activity by half. Read a low IC50 as higher potency. `O=C(N[C@@H](CS)Cc1c[nH]c2ccccc12)C1CCN(C(=O)Cc2ccc(-c3ccccc3)cc2)CC1` [1-(2-Biphenyl-4-yl-acetyl)-piperidine-4-carboxylic acid [(R)-2-(1H-indol-3-yl)-1-mercaptomethyl-ethyl]-amide] came in with a half-maximal inhibitory concentration (IC50) of 6.5 µM.
The figure for `O=C(Cc1ccc(-c2ccccc2)cc1)N[C@@H](CS)Cc1cccnc1` [2-Biphenyl-4-yl-N-((R)-1-mercaptomethyl-2-pyridin-3-yl-ethyl)-acetamide] is 5.2 µM; for `O=C(CCC(C(=O)O)c1ccccc1)N[C@@H](CS)Cc1c[nH]c2ccccc12` (stereo partly drawn) [4-[(R)-2-(1H-Indol-3-yl)-1-mercaptomethyl-ethylcarbamoyl]-2-phenyl-butyric acid] it is 5.4 µM; for `O=C(Cc1ccc(OCc2cccnc2)cc1)N[C@@H](CS)Cc1c[nH]c2ccccc12` [N-[(R)-2-(1H-Indol-3-yl)-1-mercaptomethyl-ethyl]-2-[4-(pyridin-3-ylmethoxy)-phenyl]-acetamide] it is 7.7 µM.
In turn, `O=C(N[C@@H](CS)Cc1c[nH]c2ccccc12)c1cccs1` [Thiophene-2-carboxylic acid [(R)-2-(1H-indol-3-yl)-1-mercaptomethyl-ethyl]-amide] displayed an IC50 of 5.2 µM.
